Assay results published in PMC12045974, “T cell toxicity induced by tigecycline binding to the mitochondrial ribosome” (Nature Communications, 2025).
Where “and” joins values, the source holds several entries; their conditions need not be identical. Equal values may be shown once.

Tests used:
Jurkat T cells = assay: Cell viability assay (CCK-8), Jurkat T cells; assay type: cell-based, human; details: Jurkat, in % (unit assumed)
Procedure: (§1) Cells were seeded in 96-well plates ranging from 2000 to 15,000 cells per well depending on different cell lines and treated with antibiotics in serial dilutions for 72 h (120 h for the preliminary assays) in a humidified incubator (37 °C, 5% CO2) in 100 μl medium (DMEM with 10% FBS, 2.05 mM L-glutamine (Sigma) for Hek293 and Hela; RPMI-1640 with 10% FBS, 2.05 mM L-glutamine (Sigma), and 55 μM 2-ME (Gibco) for Jurkat T cells and PBMCs). Based on preliminary tests, the number of cells per well was optimized to 2000 for Hela and Hek293, 6000 for Jurkat T cells, and 15,000 for PBMCs. The stocks of antibiotics were prepared by dissolving in DMSO. As control, the same amount of DMSO was added to the non-treated groups. Serial drug dilutions were prepared in the corresponding medium to provide a total of 9 concentrations up to 300 μM for tetracyclines and up to 900 μM for additional bacterial protein synthesis inhibitors. After drug treatment, 10% CCK-8 (Cell Counting Kit-8, Sigma Aldrich) (10 μl per well) of the total volume was added to the cells and incubated for 1–4 h depending on cell lines (1 h for Hela and Hek293; 3 h for Jurkat T cells; 4 h for PBMCs) before the evaluation of the effect of antibiotics on cell viability. […] Results were visually confirmed under the light microscope. Each treatment was performed in technical repeats. Dose-response curves were plotted, mean ± SEM was shown, and half maximal inhibitory concentration (IC50) values were calculated in GraphPad Prism.

HeLa cells = assay: Cell viability assay (CCK-8), HeLa cells; assay type: cell-based; details: Hela, in % (unit assumed)
Procedure: as §1

Hek293 cells = assay: Cell viability assay (CCK-8), Hek293 cells; assay type: cell-based, human; details: in % (unit assumed)
Procedure: as §1

PBMCs = assay: Cell viability assay (CCK-8), PBMCs; assay type: cell-based, human; details: PBMCs, 72 h, Fig. 1A, in % (unit assumed)
Procedure: as §1, with “Buffy coats were ordered from anonymous blood donors at […]. […] Cells” for “Cells”, “1-4” for “1–4”

[1] = 72 h, dose 0.0457247 μM, Fig. 1A
[2] = 72 h, dose 0.137174 μM, Fig. 1A

C[C@H]1c2cccc(O)c2C(=O)C2=C(O)[C@]3(O)C(=O)C(C(N)=O)=C(O)[C@@H](N(C)C)[C@@H]3[C@@H](O)[C@@H]21 [DOX]
cell vialibity normalized to Vehicle (DMSO) (Jurkat T cells; dose 0.137174 μM): 94.1176 and 108.66 | cell vialibity normalized to Vehicle (DMSO) (Jurkat T cells; dose 0.411523 μM): 95.2614 and 97.0588 | cell vialibity normalized to Vehicle (DMSO) (Jurkat T cells; dose 1.23457 μM): 97.7941 and 96.1601 | cell vialibity normalized to Vehicle (DMSO) (Jurkat T cells; dose 3.7037 μM): 99.2647 and 106.127 | cell vialibity normalized to Vehicle (DMSO) (Jurkat T cells; dose 11.1111 μM): 82.9248 and 78.6765 | cell vialibity normalized to Vehicle (DMSO) (Jurkat T cells; dose 33.3333 μM): 10.049 and 10.3758 | cell vialibity normalized to Vehicle (DMSO) (Jurkat T cells; dose 100 μM): 2.696 and 3.35 | cell vialibity normalized to Vehicle (DMSO) (HeLa cells; dose 0.137174 μM): 99.8907 | cell vialibity normalized to Vehicle (DMSO) (HeLa cells; dose 0.411523 μM): 100.467 and 99.0837 | cell vialibity normalized to Vehicle (DMSO) (HeLa cells; dose 1.23457 μM): 99.4691 and 99.9582 | cell vialibity normalized to Vehicle (DMSO) (HeLa cells; dose 3.7037 μM): 100.07 and 93.5237 | cell vialibity normalized to Vehicle (DMSO) (HeLa cells; dose 11.1111 μM): 94.9721 and 92.1866 | cell vialibity normalized to Vehicle (DMSO) (HeLa cells; dose 33.3333 μM): 96.9079 and 96.5877 | cell vialibity normalized to Vehicle (DMSO) (HeLa cells; dose 100 μM): 97.8134 and 89.7632 | cell vialibity normalized to Vehicle (DMSO) (HeLa cells; dose 300 μM): 79.6379 and 78.468 | cell vialibity normalized to Vehicle (DMSO) (HeLa cells; dose 900 μM): 4.838 and 4.476 | cell vialibity normalized to Vehicle (DMSO) (Hek293 cells; HEK293, dose 0.137174 μM): 97.7577 and 100.716 | cell vialibity normalized to Vehicle (DMSO) (Hek293 cells; HEK293, dose 0.411523 μM): 94.3943 and 94.2074 | cell vialibity normalized to Vehicle (DMSO) (Hek293 cells; HEK293, dose 1.23457 μM): 85.067 and 89.3024 | cell vialibity normalized to Vehicle (DMSO) (Hek293 cells; HEK293, dose 3.7037 μM): 85.4718 and 85.9078 | cell vialibity normalized to Vehicle (DMSO) (Hek293 cells; HEK293, dose 11.1111 μM): 79.6792 and 82.0461 | cell vialibity normalized to Vehicle (DMSO) (Hek293 cells; HEK293, dose 33.3333 μM): 56.1352 and 52.9274 | cell vialibity normalized to Vehicle (DMSO) (Hek293 cells; HEK293, dose 100 μM): 25.8642 and 25.3348 | cell vialibity normalized to Vehicle (DMSO) (Hek293 cells; HEK293, dose 300 μM): 21.3952 and 21.8001 | cell vialibity normalized to Vehicle (DMSO) (Hek293 cells; HEK293, dose 900 μM): 5.254 and 4.351

oxycycline
cell vialibity normalized to Vehicle (DMSO) (Jurkat T cells; [1]): 95.9551 and 99.8266 and 111.591 | cell vialibity normalized to Vehicle (DMSO) (Jurkat T cells; [2]): 122.921 and 100.043 and 106.21 | cell vialibity normalized to Vehicle (DMSO) (Jurkat T cells; 72 h, dose 1.23457 μM, Fig. 1A): 104.27 and 99.6099 and 104.508 | cell vialibity normalized to Vehicle (DMSO) (Jurkat T cells; 72 h, dose 3.7037 μM, Fig. 1A): 87.8652 and 92.4577 and 103.45 | cell vialibity normalized to Vehicle (DMSO) (Jurkat T cells; 72 h, dose 11.1111 μM, Fig. 1A): 101.124 and 98.0061 and 123.919 | cell vialibity normalized to Vehicle (DMSO) (Jurkat T cells; 72 h, dose 33.3333 μM, Fig. 1A): 92.809 and 101.734 and 114.305 | cell vialibity normalized to Vehicle (DMSO) (Jurkat T cells; 72 h, dose 100 μM, Fig. 1A): 28.8764 and 25.2276 and 26.6329 | cell vialibity normalized to Vehicle (DMSO) (Jurkat T cells; 72 h, dose 300 μM, Fig. 1A): 15.1685 and 10.4898 and 12.0515 | cell vialibity normalized to Vehicle (DMSO) (PBMCs; dose 0.0457247 μM): 99.5117 and 100.066 and 89.1698 and 120.008 and 102.707 | cell vialibity normalized to Vehicle (DMSO) (PBMCs; dose 0.137174 μM): 101.938 and 102.097 and 92.5408 and 113.339 and 130.667 | cell vialibity normalized to Vehicle (DMSO) (PBMCs; dose 0.411523 μM): 93.1002 and 107.019 and 97.4538 and 111.081 and 113.453 | cell vialibity normalized to Vehicle (DMSO) (PBMCs; dose 1.23457 μM): 93.4625 and 104.955 and 100.95 and 107.767 and 104.422 | cell vialibity normalized to Vehicle (DMSO) (PBMCs; dose 3.7037 μM): 87.0825 and 89.8101 and 98.4579 and 106.835 and 106.22 | cell vialibity normalized to Vehicle (DMSO) (PBMCs; dose 11.1111 μM): 86.2319 and 86.9364 and 102.905 and 107.27 and 113.598 | cell vialibity normalized to Vehicle (DMSO) (PBMCs; dose 33.3333 μM): 84.2313 and 84.0462 and 91.6801 and 95.3397 and 99.442

medocycline
cell vialibity normalized to Vehicle (DMSO) (Jurkat T cells; [1]): 102.989 and 99.9557 and 109.669 | cell vialibity normalized to Vehicle (DMSO) (Jurkat T cells; [2]): 102.725 and 107.699 and 114.702 | cell vialibity normalized to Vehicle (DMSO) (Jurkat T cells; 72 h, dose 0.411523 μM, Fig. 1A): 103.253 and 102.434 and 102.384 | cell vialibity normalized to Vehicle (DMSO) (Jurkat T cells; 72 h, dose 1.23457 μM, Fig. 1A): 99.4725 and 91.8142 and 98.8083 | cell vialibity normalized to Vehicle (DMSO) (Jurkat T cells; 72 h, dose 3.7037 μM, Fig. 1A): 86.4176 and 91.8584 and 75.4404 | cell vialibity normalized to Vehicle (DMSO) (Jurkat T cells; 72 h, dose 11.1111 μM, Fig. 1A): 52.967 and 57.0354 and 39.5078 | cell vialibity normalized to Vehicle (DMSO) (Jurkat T cells; 72 h, dose 33.3333 μM, Fig. 1A): 13.8022 and 14.0708 and 21.114 | cell vialibity normalized to Vehicle (DMSO) (Jurkat T cells; 72 h, dose 100 μM, Fig. 1A): 9.495 and 9.425 and 18.7824 | cell vialibity normalized to Vehicle (DMSO) (Jurkat T cells; 72 h, dose 300 μM, Fig. 1A): 7.165 and 7.743 and 8.238 | cell vialibity normalized to Vehicle (DMSO) (PBMCs; dose 0.0457247 μM): 99.3099 and 104.911 and 97.5874 and 111.701 and 85.5908 | cell vialibity normalized to Vehicle (DMSO) (PBMCs; dose 0.137174 μM): 96.2044 and 113.924 and 98.007 and 101.337 and 91.5168 | cell vialibity normalized to Vehicle (DMSO) (PBMCs; dose 0.411523 μM): 87.4466 and 108.341 and 104.406 and 103.147 and 93.157 | cell vialibity normalized to Vehicle (DMSO) (PBMCs; dose 1.23457 μM): 87.9395 and 106.341 and 92.1504 and 97.7385 and 83.3333 | cell vialibity normalized to Vehicle (DMSO) (PBMCs; dose 3.7037 μM): 96.5495 and 93.5206 and 91.1364 and 95.1622 and 83.8095 | cell vialibity normalized to Vehicle (DMSO) (PBMCs; dose 11.1111 μM): 80.6934 and 86.1279 and 92.0804 and 88.6726 and 85.0088 | cell vialibity normalized to Vehicle (DMSO) (PBMCs; dose 33.3333 μM): 52.5961 and 55.9883 and 48.1294 and 49.4985 and 42.8924 | cell vialibity normalized to Vehicle (DMSO) (PBMCs; dose 100 μM): 27.933 and 27.6926 and 32.9196 and 27.237 and 25.2205 | cell vialibity normalized to Vehicle (DMSO) (PBMCs; dose 300 μM): 19.208 and 32.8451 and 31.9056 and 30.1672 and 23.6508
